Tests used:
Test in all cases: relative viability (nuclei count vs DMSO), 5 days (fraction); higher = more cells survive
PAC-1 + Foretinib = compound: C=CCc1cccc(/C=N/NC(=O)CN2CCN(Cc3ccccc3)CC2)c1O [PAC-1] + COc1cc2c(Oc3ccc(NC(=O)C4(C(=O)Nc5ccc(F)cc5)CC4)cc3F)ccnc2cc1OCCCN1CCOCC1 [Foretinib] (partner 0.25 µM)
How it was run: (§1)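 One day after seeding in 1536-well plates, lung cancer cell lines were dosed by pin tool. Dosing was either single-drug or a fixed anchor-drug dose plus five library-drug doses (not always all listed) in √10 steps. After 5 days, nuclei were stained in one fix-and-stain step and counted on 4× images, and relative viability is the nuclei count of treated wells over that of vehicle wells, given as the median of duplicate plates.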

Ibrutinib + Luminespib = compound: C=CC(=O)N1CCC[C@@H](n2nc(-c3ccc(Oc4ccccc4)cc3)c3c(N)ncnc32)C1 [Ibrutinib] + CCNC(=O)c1noc(-c2cc(C(C)C)c(O)cc2O)c1-c1ccc(CN2CCOCC2)cc1 [Luminespib] (partner 0.01 µM)
How it was run: as §1

BMX-IN-1 + Vorinostat = compound: C=CC(=O)Nc1cc(-n2c(=O)ccc3cnc4ccc(-c5ccc(NS(C)(=O)=O)cc5)cc4c32)ccc1C [BMX-IN-1] + O=C(CCCCCCC(=O)Nc1ccccc1)NO [Vorinostat] (partner 1 µM)
How it was run: as §1

PAC-1 + Pictilisib = compound: C=CCc1cccc(/C=N/NC(=O)CN2CCN(Cc3ccccc3)CC2)c1O [PAC-1] + CS(=O)(=O)N1CCN(Cc2cc3nc(-c4cccc5[nH]ncc45)nc(N4CCOCC4)c3s2)CC1 [Pictilisib] (partner 1 µM)
How it was run: as §1

| Cell Line | relative viability (PAC-1 + Foretinib; first compound 0.02 µM) | relative viability (PAC-1 + Foretinib; first compound 0.06325 µM) | relative viability (PAC-1 + Foretinib; first compound 0.2 µM) | relative viability (PAC-1 + Foretinib; first compound 2 µM) | relative viability (Ibrutinib + Luminespib; first compound 0.005 µM) | relative viability (Ibrutinib + Luminespib; first compound 0.01581 µM) | relative viability (Ibrutinib + Luminespib; first compound 0.05 µM) | relative viability (Ibrutinib + Luminespib; first compound 0.1581 µM) | relative viability (Ibrutinib + Luminespib; first compound 0.5 µM) | relative viability (BMX-IN-1 + Vorinostat; first compound 0.02 µM) | relative viability (BMX-IN-1 + Vorinostat; first compound 0.2 µM) | relative viability (BMX-IN-1 + Vorinostat; first compound 0.6325 µM) | relative viability (BMX-IN-1 + Vorinostat; first compound 2 µM) | relative viability (PAC-1 + Pictilisib; first compound 0.02 µM) | relative viability (PAC-1 + Pictilisib; first compound 0.06325 µM) | relative viability (PAC-1 + Pictilisib; first compound 0.2 µM) | relative viability (PAC-1 + Pictilisib; first compound 2 µM) |
| --- | --- | --- | --- | --- | --- | --- | --- | --- | --- | --- | --- | --- | --- | --- | --- | --- | --- |
| 201T | 0.998 | 1.22 | 1.15 | 1.11 | 1.03 | 1.02 | 1.07 | 1.05 | 0.953 | 1.2 | 1 | 1.05 | 1.05 | 0.561 | 0.702 | 0.75 | 0.672 |
| A549 | 0.952 | 0.964 | 1.04 | 1.01 | – | – | – | – | – | – | – | – | – | 0.483 | 0.511 | 0.509 | 0.487 |
| A-427 | 1.12 | 0.946 | 1.09 | 1.08 | 1.09 | 0.85 | 0.832 | 1.1 | 1.01 | 0.841 | 0.897 | 0.931 | 0.856 | 0.689 | 0.748 | 0.724 | 0.831 |
| ABC-1 | 0.991 | 1.19 | 1 | 1.01 | 0.476 | – | 0.68 | – | 0.562 | 1.34 | 1.6 | 1.39 | 1.21 | 0.624 | 0.665 | 0.545 | 0.74 |
| BEN | 0.68 | 0.651 | 0.589 | 0.678 | – | 0.292 | 0.318 | 0.307 | 0.462 | 0.621 | 0.517 | 0.585 | 0.535 | 0.557 | 0.534 | 0.536 | 0.51 |
| CAL-12T | 1.15 | 1.1 | 0.978 | 1.08 | 0.417 | 0.14 | 0.416 | 0.276 | 0.302 | 1.11 | 0.951 | 0.756 | 0.812 | 0.202 | 0.44 | 0.482 | 0.568 |
| COR-L23 | 1.01 | 1.02 | 0.902 | 0.951 | 0.605 | 0.681 | 0.722 | 0.597 | 0.622 | 0.448 | 0.524 | 0.635 | 0.421 | 0.853 | 0.848 | 0.644 | 0.855 |
| COR-L 105 | 0.991 | 1.16 | 1.25 | 1.31 | 0.765 | 0.802 | 0.744 | 0.883 | 0.599 | 0.943 | 0.886 | 0.996 | 0.716 | 0.397 | 0.397 | 0.167 | 0.411 |
| Calu-6 | 0.883 | 0.89 | 0.952 | 0.944 | – | – | – | – | – | – | – | – | – | 0.857 | 0.82 | 0.875 | 0.833 |
| ChaGo-K-1 | 0.974 | 0.949 | 0.866 | 1.04 | 0.586 | 0.409 | 0.53 | 0.655 | 0.556 | 0.91 | 0.984 | 0.835 | 0.768 | 0.817 | 0.818 | 0.925 | 0.627 |
| EBC-1 | 0.105 | 0.0969 | 0.139 | 0.121 | – | – | – | – | – | – | – | – | – | 0.371 | 0.345 | 0.379 | 0.335 |

Reference: the supplement of paper PMC10307832
